From PubChem BioAssay AID2060899 (Molecular Pharmacology Branch, DTP, NCI, 2025)
One block for each compound: values may come before it.

Test system: 565726-208-R1-J5-PDC complex spheroids, growth inhibition
Assay: Anticancer human tumor 565726-208-R1-J5-PDC patient-derived pancreatic adenocarcinoma cell line growth inhibition [RAS]
Conditions: for viability, T/C: stronger effect = lower value
How it was run: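 Tumour cells grown as complex spheroids with HUVEC endothelial cells and mesenchymal stem cells, treated with RAS pathway inhibitor combinations. Each agent spans half-log steps from near clinical Cmax, or 10 microM where Cmax is unknown.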

[1] = curve of first compound, second compound 0.000949 µM
[2] = curve of first compound, second compound 0.003 µM
[3] = curve of first compound, second compound 0.00949 µM
[4] = curve of first compound, second compound 0.03 µM
[5] = curve of first compound, second compound 0.0949 µM
[6] = curve of first compound, second compound 0.3 µM
[7] = second compound 0.000949 µM, first compound 0.0316 µM
[8] = second compound 0.000949 µM, first compound 0.1 µM
[9] = second compound 0.000949 µM, first compound 0.316 µM
[10] = second compound 0.000949 µM, first compound 1 µM
[11] = second compound 0.003 µM, first compound 0.0316 µM
[12] = second compound 0.003 µM, first compound 0.1 µM
[13] = second compound 0.003 µM, first compound 0.316 µM
[14] = second compound 0.003 µM, first compound 1 µM
[15] = second compound 0.00949 µM, first compound 0.0316 µM
[16] = second compound 0.00949 µM, first compound 0.1 µM
[17] = second compound 0.00949 µM, first compound 0.316 µM
[18] = second compound 0.00949 µM, first compound 1 µM
[19] = second compound 0.03 µM, first compound 0.0316 µM
[20] = second compound 0.03 µM, first compound 0.1 µM
[21] = second compound 0.03 µM, first compound 0.316 µM
[22] = second compound 0.03 µM, first compound 1 µM
[23] = second compound 0.0949 µM, first compound 0.0316 µM
[24] = second compound 0.0949 µM, first compound 0.1 µM
[25] = second compound 0.0949 µM, first compound 0.316 µM
[26] = second compound 0.0949 µM, first compound 1 µM
[27] = second compound 0.3 µM, first compound 0.0316 µM
[28] = second compound 0.3 µM, first compound 0.1 µM
[29] = second compound 0.3 µM, first compound 0.316 µM
[30] = second compound 0.3 µM, first compound 1 µM
[31] = second compound 0.000949 µM, first compound 3.16 µM
[32] = second compound 0.000949 µM, first compound 10 µM
[33] = second compound 0.003 µM, first compound 3.16 µM
[34] = second compound 0.003 µM, first compound 10 µM
[35] = second compound 0.00949 µM, first compound 3.16 µM
[36] = second compound 0.00949 µM, first compound 10 µM
[37] = second compound 0.03 µM, first compound 3.16 µM
[38] = second compound 0.03 µM, first compound 10 µM
[39] = second compound 0.0949 µM, first compound 3.16 µM
[40] = second compound 0.0949 µM, first compound 10 µM
[41] = second compound 0.3 µM, first compound 3.16 µM
[42] = second compound 0.3 µM, first compound 10 µM
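Note: spheroids exposed to compounds for seven days before readout.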
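Throughout, for viability, T/C: 100% = DMSO vehicle control viability.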

Structure (SMILES): CCC(CC)c1cc(NC2CCC(N)C2)n2nccc2n1 (stereo not drawn) + CCn1c(-c2cc(N3CCN(C)CC3)cnc2C(C)OC)c2c3cc(ccc31)-c1csc(n1)CC(NC(=O)C1CC1C)C(=O)N1CCCC(N1)C(=O)OCC(C)(C)C2
IC50 [1]: 507 nM | IC50 [2]: 340 nM | IC50 [3]: < 31.6 nM | IC50 [4]: < 31.6 nM | IC50 [5]: < 31.6 nM | IC50 [6]: < 31.6 nM | viability, T/C [7]: 61.1% | viability, T/C [8]: 60% | viability, T/C [9]: 65.7% | viability, T/C [10]: 32.4% | viability, T/C [31]: 0.45% | viability, T/C [32]: 1.67% | viability, T/C [11]: 56.6% | viability, T/C [12]: 51.5% | viability, T/C [13]: 50% | viability, T/C [14]: 27.7% | viability, T/C [33]: 0.47% | viability, T/C [34]: 1.59% | viability, T/C [15]: 47.2% | viability, T/C [16]: 38.9% | viability, T/C [17]: 34% | viability, T/C [18]: 24.6% | viability, T/C [35]: 0.24% | viability, T/C [36]: 2.02% | viability, T/C [19]: 31.3% | viability, T/C [20]: 36.5% | viability, T/C [21]: 31% | viability, T/C [22]: 20.2% | viability, T/C [37]: 0.4% | viability, T/C [38]: 1.85% | viability, T/C [23]: 27.4% | viability, T/C [24]: 27% | viability, T/C [25]: 24.2% | viability, T/C [26]: 16.8% | viability, T/C [39]: 0.44% | viability, T/C [40]: 1.98% | viability, T/C [27]: 23.5% | viability, T/C [28]: 27.1% | viability, T/C [29]: 23.1% | viability, T/C [30]: 13.9% | viability, T/C [41]: 0.5% | viability, T/C [42]: 1.9%

Structure (SMILES): CCn1c(-c2cc(N3CCN(C)CC3)cnc2C(C)OC)c2c3cc(ccc31)-c1csc(n1)CC(NC(=O)C1CC1C)C(=O)N1CCCC(N1)C(=O)OCC(C)(C)C2 (stereo not drawn)
viability, T/C (compound 0.000949 µM): 65% [middle of 8 runs] | viability, T/C (compound 0.003 µM): 55.2% [middle of 8 runs] | viability, T/C (compound 0.00949 µM): 43.7% [middle of 8 runs] | viability, T/C (compound 0.03 µM): 33.3% [middle of 7 runs] | viability, T/C (compound 0.0949 µM): 27.4% [middle of 7 runs] | viability, T/C (compound 0.3 µM): 24.9% [middle of 8 runs] | IC50 (compound alone, run of 07/09/2024): 4 nM [middle of 8 runs]

Now from value to compound, other results behind:

IC50 [1]: 185 nM | IC50 [2]: 11 nM | IC50 [3]: < 3.16 nM | IC50 [4]: < 3.16 nM | IC50 [5]: < 3.16 nM | IC50 [6]: < 3.16 nM
Structure (SMILES): C=CC(=O)Nc1cc(Nc2nccc(-c3cn(C)c4ccccc34)n2)c(OC)cc1N(C)CCN(C)C + CCn1c(-c2cc(N3CCN(C)CC3)cnc2C(C)OC)c2c3cc(ccc31)-c1csc(n1)CC(NC(=O)C1CC1C)C(=O)N1CCCC(N1)C(=O)OCC(C)(C)C2
viability, T/C (second compound 0.000949 µM, first compound 0.00316 µM): 63.2% | viability, T/C (second compound 0.000949 µM, first compound 0.01 µM): 62.6% | viability, T/C [7]: 59.9% | viability, T/C [8]: 56.4% | viability, T/C [9]: 44.6% | viability, T/C [10]: 34.3% | viability, T/C (second compound 0.003 µM, first compound 0.00316 µM): 58.9% | viability, T/C (second compound 0.003 µM, first compound 0.01 µM): 44.3% | viability, T/C [11]: 49.2% | viability, T/C [12]: 38.8% | viability, T/C [13]: 36.1% | viability, T/C [14]: 28.2% | viability, T/C (second compound 0.00949 µM, first compound 0.00316 µM): 43.2% | viability, T/C (second compound 0.00949 µM, first compound 0.01 µM): 38.3% | viability, T/C [15]: 34.9% | viability, T/C [16]: 30.9% | viability, T/C [17]: 24.7% | viability, T/C [18]: 20.4% | viability, T/C (second compound 0.03 µM, first compound 0.00316 µM): 30.4% | viability, T/C (second compound 0.03 µM, first compound 0.01 µM): 30.1% | viability, T/C [19]: 29.6% | viability, T/C [20]: 25.1% | viability, T/C [21]: 19% | viability, T/C [22]: 15.5% | viability, T/C (second compound 0.0949 µM, first compound 0.00316 µM): 28.3% | viability, T/C (second compound 0.0949 µM, first compound 0.01 µM): 24.6% | viability, T/C [23]: 21.4% | viability, T/C [24]: 18.2% | viability, T/C [25]: 16.4% | viability, T/C [26]: 14.7% | viability, T/C (second compound 0.3 µM, first compound 0.00316 µM): 23.4% | viability, T/C (second compound 0.3 µM, first compound 0.01 µM): 21.2% | viability, T/C [27]: 18.8% | viability, T/C [28]: 16.3% | viability, T/C [29]: 15.5% | viability, T/C [30]: 11.6%

IC50 [1]: 45 nM | IC50 [2]: < 31.6 nM | IC50 [3]: < 31.6 nM | IC50 [4]: < 31.6 nM | IC50 [5]: < 31.6 nM | IC50 [6]: < 31.6 nM
Structure (SMILES): NC1c2ccccc2OC12CCN(c1cnc3c(N4CCCc5ncccc54)n[nH]c3n1)CC2 (stereo not drawn) + CCn1c(-c2cc(N3CCN(C)CC3)cnc2C(C)OC)c2c3cc(ccc31)-c1csc(n1)CC(NC(=O)C1CC1C)C(=O)N1CCCC(N1)C(=O)OCC(C)(C)C2
viability, T/C [7]: 53.3% | viability, T/C [8]: 42.6% | viability, T/C [9]: 24.9% | viability, T/C [10]: 23.5% | viability, T/C [31]: 17.5% | viability, T/C [32]: 21.3% | viability, T/C [11]: 36.7% | viability, T/C [12]: 27.4% | viability, T/C [13]: 19.8% | viability, T/C [14]: 14.2% | viability, T/C [33]: 16.9% | viability, T/C [34]: 16.4% | viability, T/C [15]: 28.7% | viability, T/C [16]: 21% | viability, T/C [17]: 16.8% | viability, T/C [18]: 13.7% | viability, T/C [35]: 14.5% | viability, T/C [36]: 14% | viability, T/C [19]: 21.4% | viability, T/C [20]: 18% | viability, T/C [21]: 13.5% | viability, T/C [22]: 13% | viability, T/C [37]: 12.9% | viability, T/C [38]: 14.5% | viability, T/C [23]: 19.4% | viability, T/C [24]: 17% | viability, T/C [25]: 15.5% | viability, T/C [26]: 13.7% | viability, T/C [39]: 11.8% | viability, T/C [40]: 13.9% | viability, T/C [27]: 17.5% | viability, T/C [28]: 13.5% | viability, T/C [29]: 13.6% | viability, T/C [30]: 13.1% | viability, T/C [41]: 12% | viability, T/C [42]: 13.8%

IC50 (curve of compound): 4.5 µM [middle of 4 runs]
Structure (SMILES): CC1(O)CCCC1n1c(=O)c(C(F)F)cc2cnc(NC3CCN(S(C)(=O)=O)CC3)nc21 (stereo not drawn)
viability, T/C (compound 0.0316 µM): 86.8% [middle of 4 runs] | viability, T/C (compound 0.1 µM): 71.2% [middle of 4 runs] | viability, T/C (compound 1 µM): 71.2% [middle of 4 runs] | viability, T/C (compound 10 µM): 5.9% [middle of 4 runs]
